SMILES strings stand for the structures. pIC50: −log10 of the molar value. Where a SMILES comes first, the peptide text is derived from it. Bridges are numbered along the chain shown (N, C = ends). [ ]: non-standard residue; d: D form. The star is where a group is joined. Ala(thiazol-5-yl) = N[C@@H](Cc1cncs1)C(=O)O; Bip = N[C@@H](Cc1ccc(-c2ccccc2)cc1)C(=O)O; Phe(3-CN) = N#Cc1cccc(C[C@H](N)C(=O)O)c1; Phe(3-Cl) = N[C@@H](Cc1cccc(Cl)c1)C(=O)O; Phe(3-OMe) = COc1cccc(C[C@H](N)C(=O)O)c1; 4Pal = N[C@@H](Cc1ccncc1)C(=O)O; Cha = N[C@@H](CC1CCCCC1)C(=O)O; hSer = N[C@@H](CCO)C(=O)O; Carboxymethyl = O=C(O)C*; Orn = NCCC[C@H](N)C(=O)O; Dab = NCC[C@H](N)C(=O)O; Dap = NC[C@H](N)C(=O)O; Bn = c1ccc(C*)cc1

For the assay, the target named is T1, human PD-1 / PD-L1-Ig binding on Jurkat cell line over-expressing human PD-1 (Jurkat-PD-1) (Homo sapiens, UniProt Q15116).
T1 construct: expressed in transfected cells; host or cells: Jurkat
T1 sequence (Q15116 25-288): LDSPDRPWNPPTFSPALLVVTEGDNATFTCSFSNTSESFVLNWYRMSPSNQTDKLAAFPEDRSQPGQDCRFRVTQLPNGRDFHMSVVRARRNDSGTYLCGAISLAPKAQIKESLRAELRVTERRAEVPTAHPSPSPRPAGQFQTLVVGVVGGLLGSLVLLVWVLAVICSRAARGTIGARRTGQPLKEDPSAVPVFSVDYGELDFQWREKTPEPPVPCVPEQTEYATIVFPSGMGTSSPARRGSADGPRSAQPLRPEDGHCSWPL
Nature of the assay: Jurkat-PD-1 Cell Binding High-Content Screening Assay (CBA). It is filed as cell-based. The settings on record: Jurkat-PD-1 cells, PE-labeled PD-L1-Ig 20 nM final; read-out: Jurkat HPD1_PDL1 IC50. An outline of the steps:
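Compounds were preincubated with Jurkat-hPD-1 cells in DMEM plus 10% fetal calf serum for 2 h at 37° C. Phycoerythrin-labeled PD-L1-Ig (20 nM final) was then added for 1 hour. Cells were fixed in 4% paraformaldehyde with Hoechst 33342, and bound fluorescence was quantified by high-content imaging.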
With `CC(C)C[C@H]1NC(=O)[C@H](CCCN)NC(=O)[C@H](CCC(=O)O)NC(=O)[C@H](Cc2ccc(-c3ccccc3)cc2)NC(=O)[C@H](C(C)C)NC(=O)[C@H](Cc2cccc(Cl)c2)NC(=O)[C@H](CC(=O)O)NC(=O)[C@H](Cc2ccncc2)NC(=O)[C@H](Cc2ccc(OCC(=O)O)cc2)NC(=O)CSC[C@@H](C(=O)N[C@@H](C)C(N)=O)NC(=O)[C@H]([C@@H](C)O)NC(=O)[C@H](C(C)C)NC(=O)[C@H](CC2CCCCC2)NC(=O)[C@H](CCN)NC1=O` [Compound 1493] ({CH2CO}-Y(Carboxymethyl)[4Pal]D[Phe(3-Cl)]V[Bip]E[Orn][dL][Dab][Cha]VTCA-NH2; thioether N-14), the pIC50 (commonly the negative decadic logarithm of the IC50, by convention in mol/L) was 7.97.

As to `CC(C)C[C@H]1NC(=O)[C@H](CCCN)NC(=O)[C@H](CCC(=O)O)NC(=O)[C@H](Cc2ccc(-c3ccccc3)cc2)NC(=O)[C@H](C(C)C)NC(=O)[C@H](Cc2cccc(Cl)c2)NC(=O)[C@H](CC(=O)O)NC(=O)[C@H](Cc2ccc(O)cc2)NC(=O)[C@H](CC(N)=O)NC(=O)CSC[C@@H](C(=O)N[C@@H](C)C(N)=O)NC(=O)[C@H]([C@@H](C)O)NC(=O)[C@H](C(C)C)NC(=O)[C@H](CC2CCCCC2)NC(=O)[C@H](CCN)NC1=O` [Compound 1494] ({CH2CO}-NYD[Phe(3-Cl)]V[Bip]E[Orn][dL][Dab][Cha]VTCA-NH2; thioether N-14), the pIC50 was 7.86.

With `CC(C)C[C@H]1NC(=O)[C@H](CCCN)NC(=O)[C@H](CCC(=O)O)NC(=O)[C@H](Cc2ccc(-c3ccccc3)cc2)NC(=O)[C@H](C(C)C)NC(=O)[C@H](Cc2cccc(Cl)c2)NC(=O)[C@H](CC(=O)O)NC(=O)[C@H](Cc2ccc(OCC(=O)O)cc2)NC(=O)[C@H](CN)NC(=O)CSC[C@@H](C(=O)N[C@@H](C)C(N)=O)NC(=O)[C@H]([C@@H](C)O)NC(=O)[C@H](C(C)C)NC(=O)[C@H](CC2CCCCC2)NC(=O)[C@H](CCN)NC1=O` [Compound 1495], the pIC50 was 8.24.

Consider `CC(C)C[C@H]1NC(=O)[C@H](CCCN)NC(=O)[C@H](CCC(=O)O)NC(=O)[C@H](Cc2ccc(-c3ccccc3)cc2)NC(=O)[C@H](C(C)C)NC(=O)[C@H](Cc2cccc(Cl)c2)NC(=O)[C@H](CC(=O)O)NC(=O)[C@H](Cc2ccncc2)NC(=O)[C@H](CN)NC(=O)CSC[C@@H](C(=O)N[C@@H](C)C(N)=O)NC(=O)[C@H]([C@@H](C)O)NC(=O)[C@H](C(C)C)NC(=O)[C@H](CC2CCCCC2)NC(=O)[C@H](CCN)NC1=O` [Compound 1496] ({CH2CO}-[Dap][4Pal]D[Phe(3-Cl)]V[Bip]E[Orn][dL][Dab][Cha]VTCA-NH2; thioether N-14), for which the pIC50 was 7.75.

Turning to `CC(C)C[C@H]1NC(=O)[C@H](CCCN)NC(=O)[C@H](CCC(=O)O)NC(=O)[C@H](Cc2ccc(-c3ccccc3)cc2)NC(=O)[C@H](C(C)C)NC(=O)[C@H](Cc2c[nH]c3ccccc23)NC(=O)[C@H](COCc2ccccc2)NC(=O)[C@H](Cc2ccc(OCC(=O)O)cc2)NC(=O)[C@H](CN)NC(=O)CSC[C@@H](C(=O)N[C@@H](C)C(N)=O)NC(=O)[C@H]([C@@H](C)O)NC(=O)[C@H](C(C)C)NC(=O)[C@H](CC2CCCCC2)NC(=O)[C@H](CCN)NC1=O` [Compound 1497] ({CH2CO}-[Dap]Y(Carboxymethyl)S(Bn)WV[Bip]E[Orn][dL][Dab][Cha]VTCA-NH2; thioether N-14), the pIC50 is 6.46.

In the case of `CC(C)C[C@H]1NC(=O)[C@H](CCCN)NC(=O)[C@H](CCC(=O)O)NC(=O)[C@H](Cc2ccc(-c3ccccc3)cc2)NC(=O)[C@H](C(C)C)NC(=O)[C@H](Cc2c[nH]c3ccccc23)NC(=O)[C@H](CO)NC(=O)[C@H](Cc2ccc(OCC(=O)O)cc2)NC(=O)[C@H](CN)NC(=O)CSC[C@@H](C(=O)N[C@@H](C)C(N)=O)NC(=O)[C@H]([C@@H](C)O)NC(=O)[C@H](C(C)C)NC(=O)[C@H](CC2CCCCC2)NC(=O)[C@H](CCN)NC1=O` [Compound 1498] ({CH2CO}-[Dap]Y(Carboxymethyl)SWV[Bip]E[Orn][dL][Dab][Cha]VTCA-NH2; thioether N-14), the pIC50 is 6.44.

With `CC(C)C[C@H]1NC(=O)[C@H](CCCN)NC(=O)[C@H](CCC(=O)O)NC(=O)[C@H](Cc2ccc(-c3ccccc3)cc2)NC(=O)[C@H](C(C)C)NC(=O)[C@H](Cc2c[nH]c3ccccc23)NC(=O)[C@H](CCO)NC(=O)[C@H](Cc2ccc(OCC(=O)O)cc2)NC(=O)[C@H](CN)NC(=O)CSC[C@@H](C(=O)N[C@@H](C)C(N)=O)NC(=O)[C@H]([C@@H](C)O)NC(=O)[C@H](C(C)C)NC(=O)[C@H](CC2CCCCC2)NC(=O)[C@H](CCN)NC1=O` [Compound 1499] ({CH2CO}-[Dap]Y(Carboxymethyl)[hSer]WV[Bip]E[Orn][dL][Dab][Cha]VTCA-NH2; thioether N-14), the pIC50 was 6.18.

On to `COC[C@@H]1NC(=O)[C@H](Cc2ccc(OCC(=O)O)cc2)NC(=O)[C@H](CN)NC(=O)CSC[C@@H](C(=O)N[C@@H](C)C(N)=O)NC(=O)[C@H]([C@@H](C)O)NC(=O)[C@H](C(C)C)NC(=O)[C@H](CC2CCCCC2)NC(=O)[C@H](CCN)NC(=O)[C@@H](CC(C)C)NC(=O)[C@H](CCCN)NC(=O)[C@H](CCC(=O)O)NC(=O)[C@H](Cc2ccc(-c3ccccc3)cc2)NC(=O)[C@H](C(C)C)NC(=O)[C@H](Cc2c[nH]c3ccccc23)NC1=O` [Compound 1500] ({CH2CO}-[Dap]Y(Carboxymethyl)S(Me)WV[Bip]E[Orn][dL][Dab][Cha]VTCA-NH2; thioether N-14), for which the pIC50 was 6.62.

`CC(C)C[C@H]1NC(=O)[C@H](CCCN)NC(=O)[C@H](CCC(=O)O)NC(=O)[C@H](Cc2ccc(-c3ccccc3)cc2)NC(=O)[C@H](C(C)C)NC(=O)[C@H](Cc2cccc(Cl)c2)NC(=O)[C@H](CC(=O)O)NC(=O)[C@H](Cc2ccc(OCC(=O)O)cc2)NC(=O)[C@H](Cc2cccnc2)NC(=O)CSC[C@@H](C(=O)N[C@@H](C)C(N)=O)NC(=O)[C@H]([C@@H](C)O)NC(=O)[C@H](C(C)C)NC(=O)[C@H](CC2CCCCC2)NC(=O)[C@H](CCN)NC1=O` [Compound 1501]: the pIC50 is 7.97.

For the compound `CC(C)C[C@H]1NC(=O)[C@H](CCCN)NC(=O)[C@H](CCC(=O)O)NC(=O)[C@H](Cc2ccc(-c3ccccc3)cc2)NC(=O)[C@H](C(C)C)NC(=O)[C@H](Cc2cccc(C(F)(F)F)c2)NC(=O)[C@H](CC(=O)O)NC(=O)[C@H](Cc2ccc(OCC(=O)O)cc2)NC(=O)[C@H](Cc2cccnc2)NC(=O)CSC[C@@H](C(=O)N[C@@H](C)C(N)=O)NC(=O)[C@H]([C@@H](C)O)NC(=O)[C@H](C(C)C)NC(=O)[C@H](CC2CCCCC2)NC(=O)[C@H](CCN)NC1=O` [Compound 1502], the pIC50 was 7.77.

For the compound `CC(C)C[C@H]1NC(=O)[C@H](CCCN)NC(=O)[C@H](CCC(=O)O)NC(=O)[C@H](Cc2ccc(-c3ccccc3)cc2)NC(=O)[C@H](C(C)C)NC(=O)[C@H](Cc2c[nH]c3ccccc23)NC(=O)[C@H](CC(=O)O)NC(=O)[C@H](Cc2ccc(OCC(=O)O)cc2)NC(=O)[C@H](CN)NC(=O)CSC[C@@H](C(=O)N[C@@H](C)C(N)=O)NC(=O)[C@H]([C@@H](C)O)NC(=O)[C@H](C(C)C)NC(=O)[C@H](Cc2cncs2)NC(=O)[C@H](CCN)NC1=O` [Compound 1503] ({CH2CO}-[Dap]Y(Carboxymethyl)DWV[Bip]E[Orn][dL][Dab][Ala(thiazol-5-yl)]VTCA-NH2; thioether N-14), the pIC50 was 7.37.

Consider `COc1cccc(C[C@@H]2NC(=O)[C@H](CC(=O)O)NC(=O)[C@H](Cc3ccc(OCC(=O)O)cc3)NC(=O)[C@H](Cc3ccc(OCC(=O)O)cc3)NC(=O)CSC[C@@H](C(=O)N[C@@H](C)C(N)=O)NC(=O)[C@H]([C@@H](C)O)NC(=O)[C@H](C(C)C)NC(=O)[C@H](CC3CCCCC3)NC(=O)[C@H](CCN)NC(=O)[C@@H](CC(C)C)NC(=O)[C@H](CCCN)NC(=O)[C@H](CCC(=O)O)NC(=O)[C@H](Cc3ccc(-c4ccccc4)cc3)NC(=O)[C@H](C(C)C)NC2=O)c1` [Compound 1504], for which the pIC50 is 8.28.

Consider `COc1cccc(C[C@@H]2NC(=O)[C@H](CC(=O)O)NC(=O)[C@H](Cc3ccncc3)NC(=O)[C@H](Cc3ccc(OCC(=O)O)cc3)NC(=O)CSC[C@@H](C(=O)N[C@@H](C)C(N)=O)NC(=O)[C@H]([C@@H](C)O)NC(=O)[C@H](C(C)C)NC(=O)[C@H](CC3CCCCC3)NC(=O)[C@H](CCN)NC(=O)[C@@H](CC(C)C)NC(=O)[C@H](CCCN)NC(=O)[C@H](CCC(=O)O)NC(=O)[C@H](Cc3ccc(-c4ccccc4)cc3)NC(=O)[C@H](C(C)C)NC2=O)c1` [Compound 1505] ({CH2CO}-Y(Carboxymethyl)[4Pal]D[Phe(3-OMe)]V[Bip]E[Orn][dL][Dab][Cha]VTCA-NH2; thioether N-14), for which the pIC50 is 7.63.

Consider `CC(C)C[C@H]1NC(=O)[C@H](CCCN)NC(=O)[C@H](CCC(=O)O)NC(=O)[C@H](Cc2ccc(-c3ccccc3)cc2)NC(=O)[C@H](C(C)C)NC(=O)[C@H](Cc2c[nH]c3ccccc23)NC(=O)[C@H](CC(=O)O)NC(=O)[C@H](Cc2ccc(OCC(=O)O)cc2)NC(=O)[C@H](CN)NC(=O)CSC[C@@H](C(=O)N[C@@H](C)C(N)=O)NC(=O)[C@H]([C@@H](C)O)NC(=O)[C@H](C(C)C)NC(=O)[C@H](Cc2cccc(Cl)c2)NC(=O)[C@H](CCN)NC1=O` [Compound 1506] ({CH2CO}-[Dap]Y(Carboxymethyl)DWV[Bip]E[Orn][dL][Dab][Phe(3-Cl)]VTCA-NH2; thioether N-14), for which the pIC50 was 7.25.

On to `CC(C)C[C@H]1NC(=O)[C@H](CCCN)NC(=O)[C@H](CCC(=O)O)NC(=O)[C@H](Cc2ccc(-c3ccccc3)cc2)NC(=O)[C@H](C(C)C)NC(=O)[C@H](Cc2c[nH]c3ccccc23)NC(=O)[C@H](CC(=O)O)NC(=O)[C@H](Cc2ccc(OCC(=O)O)cc2)NC(=O)[C@H](CN)NC(=O)CSC[C@@H](C(=O)N[C@@H](C)C(N)=O)NC(=O)[C@H]([C@@H](C)O)NC(=O)[C@H](C(C)C)NC(=O)[C@H](Cc2cccc(C#N)c2)NC(=O)[C@H](CCN)NC1=O` [Compound 1507] ({CH2CO}-[Dap]Y(Carboxymethyl)DWV[Bip]E[Orn][dL][Dab][Phe(3-CN)]VTCA-NH2; thioether N-14), for which the pIC50 is 6.81.

The record behind these values is patent publication US20250163104A1, “MACROCYCLIC IMMUNOMODULATORS” (priority 2021, published 2025).
